Laboratory results published in paper PMC3305904, “N^β-methylation changes the recognition pattern of aza-β^3-amino acid containing peptidomimetic substrates by protein kinase A” (Organic and Medicinal Chemistry Letters, 2011).
Read-outs that look alike come from different tables or passages of the source.

Tests used:
[1] = target: T1, PKA catalytic subunit (Homo sapiens, UniProt P17612); conditions: parent peptide, cited from earlier work
Method: Table 1 Phosphorylation of N^β-methylated peptidomimetic substrates by PKA catalytic subunit at ATP concentration 100 μM, 30°C, 50 mM TRIS/HCl, pH 7 | column: Km (μM); 10^2 kcat (μmole mg^-1 s^-1); 10^2 kII (L mg^-1 s^-1)

[2] = target: T1, PKA catalytic subunit; experiment: PKA-catalyzed phosphorylation of peptide/peptidomimetic substrates, [γ-32P]ATP, phosphocellulose paper binding; format: biochemical; conditions: ATP 100 μM, 30°C, 50 mM TRIS/HCl, pH 7; for 10^2 kcat: Michaelis-Menten fit, value is kcat multiplied by 10^2; for 10^2 kII (second order rate constant): from the initial linear part of the Michaelis-Menten plot, value is kII multiplied by 10^2; for Km: substrate phosphorylation by PKA catalytic subunit, Michaelis-Menten fit of initial velocities, substrate concentration varied
Method: The phosphorylation reactions followed the classical Michaelis-Menten rate equation and therefore all substrates were characterized by the Km and kcat values, which correspond to the constant ATP concentration of 0.1 mM. The initial linear part of the Mihaelis-Menten plot was used for the calculation of the second order rate constants kII as described in [10] and these values are also listed in Table 1. Agreement between the parameters kII and values of the ratio of kcat/Km for substrates confirms the applicability of the Michelis-Menten rate equation for the description of the kinetic data.
The method of kinetic measurements was described in our previous article and was based on utilizing the radioactive ATP with [^32P]phosphate in γ-position. The phosphorylated substrates were bound onto Whatman phosphocellulose paper and the paper-bound radioactivity was counted. Linear plots between filter-bound radioactivity and time were used for calculating the initial velocity values of the phosphorylation reaction, which were thereafter processed by the classical Michaelis-Menten rate equation. Kinetic experiments were made at constant ATP concentration (100 μM) and the Km and kcat values were calculated for peptidomimetic substrates, concentrations of which were varied in the reaction mixture.

Substance | Km ([1]; phosphorylation by PKA) [µM] | 10^2 kII (second order rate constant) ([1]; value is kII multiplied by 10^2) [L mg^-1 s^-1] | 10^2 kcat ([1]; value is kcat multiplied by 10^2) [μmole mg^-1 s^-1] | 10^2 kcat [2] [μmole mg^-1 s^-1] | 10^2 kII (second order rate constant) [2] [L mg^-1 s^-1] | Km [2] [µM]
RRASVA | 11.1 ± 3.5 | 3.2 ± 0.1 | 36 ± 3 | – | – | –
RRASVA [I, RRASVA analog with one N^β-Me-aza-β^3-amino acid residue; likely the N-terminal Arg] | – | – | – | 24.4 ± 1.5 | 0.098 ± 0.010 | 209 ± 24
RRASVA [II, RRASVA analog with one N^β-Me-aza-β^3-amino acid residue; likely the second Arg] | – | – | – | 11.9 ± 1.0 | 0.11 ± 0.07 | 79 ± 18
RRASVA [III, RRASVA analog with one N^β-Me-aza-β^3-amino acid residue; likely Ala at position -1] | – | – | – | 5.5 ± 0.3 | 0.034 ± 0.005 | 91 ± 15
RRASVA [IV, RRASVA analog with one N^β-Me-aza-β^3-amino acid residue; likely Val] | – | – | – | 16 ± 2.0 | 0.12 ± 0.02 | 118 ± 36
RRASVA [RRASVA analog with one N^β-Me-aza-β^3-amino acid residue; likely the C-terminal Ala] | – | – | – | 5.0 ± 0.4 | 0.090 ± 0.015 | 57 ± 17
